In patent US6908913B2, “Carbapenem derivatives” (Meiji Seiki Kaisha, Ltd., priority 2000, dated 2005):
Values after ≈ are worked out from the molar mass of the structure shown. Values belong to the compound of their own block, whether it stands above or below them.

Assays:
B. catarrhalis W-0500 = assay: Antibiotic activities (MIC), agar dilution; type: cell-based; settings: Moraxella catarrhalis, W0500, Sensitivity Disk agar-N+5% Horse blood, inoculant 10^6 CFU/ml, read-out: minimum inhibiting concentration (MIC)
Procedure: (§1) The minimum inhibiting concentrations (MIC, μg/ml) of representative compounds among the novel carbapenem derivatives according to the present invention to various pathogenic bacteria were measured in accordance with the method described in CHEMOTHERAPY, vol. 16, No. 1, 99, 1968. The culture medium for measurement was Sensitivity Disk agar-N+5% Horse blood, and the amount of inoculants was 10^6 CFU/ml.

E. coli NIHJ JC-2 = assay: Antibiotic activities (MIC), agar dilution; type: cell-based; settings: Escherichia coli, NIHJJC2, Sensitivity Disk agar-N+5% Horse blood, inoculant 10^6 CFU/ml, read-out: minimum inhibiting concentration (MIC)
Procedure: as §1

H. influenzae PRC44 = assay: Antibiotic activities (MIC), agar dilution; type: cell-based; settings: Haemophilus influenzae, Sensitivity Disk agar-N+5% Horse blood, inoculant 10^6 CFU/ml, read-out: minimum inhibiting concentration (MIC)
Procedure: as §1

K. pneumoniae PCI602 = assay: Antibiotic activities (MIC), agar dilution; type: cell-based; settings: Klebsiella pneumoniae, Sensitivity Disk agar-N+5% Horse blood, inoculant 10^6 CFU/ml, read-out: minimum inhibiting concentration (MIC)
Procedure: as §1

S. aureus 209P JC-1 = assay: Antibiotic activities (MIC), agar dilution; type: cell-based; settings: Staphylococcus aureus, Sensitivity Disk agar-N+5% Horse blood, inoculant 10^6 CFU/ml, read-out: minimum inhibiting concentration (MIC)
Procedure: as §1

[1] = test system: S. aureus M126 (methicillin-hyperresistant strain); assay: Antibiotic activities (MIC), agar dilution; type: cell-based; settings: Staphylococcus aureus, Sensitivity Disk agar-N+5% Horse blood, inoculant 10^6 CFU/ml, read-out: minimum inhibiting concentration (MIC)
Procedure: as §1

[2] = test system: S. aureus M126 HR (methicillin-hyperresistant strain); assay: Antibiotic activities (MIC), agar dilution; type: cell-based; settings: Staphylococcus aureus, Sensitivity Disk agar-N+5% Horse blood, inoculant 10^6 CFU/ml, read-out: minimum inhibiting concentration (MIC)
Procedure: as §1

[3] = test system: S. pneumoniae PRC9 (penicillin-hyperresistant strain); assay: Antibiotic activities (MIC), agar dilution; type: cell-based; settings: Streptococcus pneumoniae, Sensitivity Disk agar-N+5% Horse blood, inoculant 10^6 CFU/ml, read-out: minimum inhibiting concentration (MIC)
Procedure: as §1

[4] = test system: Staphylococcus aureus MF126 (MRSA); assay: Therapeutic effect on mice subjected to general infection with MRSA; type: in vivo; settings: cyclophosphamide-treated mice, subcutaneous with cilastatin 2 and 4 hours after infection, survival rate on seventh day
Procedure: The therapeutic effect of representative compounds among the novel carbapenem derivatives according to the present invention on mice subjected to general infection with MRSA were assayed by the following method, and the results are shown in Table 2. Specifically, cyclophosphamide (200 mg/kg) was administered intraperitoneally to mice (n=8), and, four days after the administration of cyclophosphamide, Staphylococcus aureus MF126 (MRSA) was inoculated intraperitoneally to infect the mice with MRSA. Cilastatin (1 mg/mouse) and the carbapenem compound in an indicated amount were subcutaneously administered two hours and four hours after the infection. ED50 was calculated based on the survival rate on the seventh day after the infection.

[5] = type: in vivo; settings: intravenously, 1,000 mg/kg, ICR male mice, three mice per group
Procedure: The compound of Example 1 was administered intravenously to mice (ICR, male, each group consisting of three mice) in an amount of 2,000 mg/kg.
The compound of Example 2 was administered intravenously to mice (ICR, male, each group consisting of three mice) in an amount of 1,000 mg/kg.

[6] = Amount of inoculant: 2.8 × 10^6 CFU/mouse
[7] = Amount of inoculant: 5.9 × 10^6 CFU/mouse

SMILES: C[C@@H](O)[C@H]1C(=O)N2C(C(=O)O)=C(c3cn4cnc(C(=O)c5cccnc5)c4s3)[C@H](C)[C@H]12 [Example 1, Sodium (1S,5R,6S)-6-((1R)-1-hydroxyethyl)-1-methyl-2-[7-(pyridin-3-yl)carbonylimidazo[5,1-b]thiazol 2-yl]-1-carbapen-2-em-3-carboxylate]
MIC (B. catarrhalis W-0500): 0.016 µg/mL | MIC (E. coli NIHJ JC-2): 1 µg/mL | MIC (H. influenzae PRC44): 0.031 µg/mL | MIC (K. pneumoniae PCI602): 1 µg/mL | MIC (S. aureus 209P JC-1): < 0.008 µg/mL | MIC [1]: 1 µg/mL | MIC [2]: 4 µg/mL | MIC [3]: 0.031 µg/mL

SMILES: C[C@@H](O)[C@H]1C(=O)N2C(C(=O)[O-])=C(c3cn4cnc(C(=O)c5ccc[n+](CC(N)=O)c5)c4s3)[C@H](C)[C@H]12 [Example 2, (1S,5R,6S)-2-[7-(1-Carbamoylmethylpyridinium-3-yl)carbonylimidazo[5,1-b]thiazol-2-yl]-6-((1R)-1-hydroxyethyl)-1-methyl-1-carbapen-2-em-3-carboxylate]
MIC (B. catarrhalis W-0500): 0.016 µg/mL (≈ 0.0323 µM) | MIC (E. coli NIHJ JC-2): 0.031 µg/mL (≈ 0.0626 µM) | MIC (H. influenzae PRC44): 0.031 µg/mL (≈ 0.0626 µM) | MIC (K. pneumoniae PCI602): 0.063 µg/mL (≈ 0.127 µM) | MIC (S. aureus 209P JC-1): < 0.008 µg/mL | MIC [1]: 0.5 µg/mL (≈ 1.01 µM) | MIC [2]: 2 µg/mL (≈ 4.04 µM) | MIC [3]: 0.031 µg/mL (≈ 0.0626 µM) | ED50 [4, 6]: 0.07 mg/mouse | survival in acute toxicity test [5]: all of the mice survived

SMILES: C[C@@H](O)[C@H]1C(=O)N2C(C(=O)O)=C(c3cn4cnc(C(=O)[C@@H]5CCCN5)c4s3)[C@H](C)[C@H]12 [Example 11, Sodium (1S,5R,6S)-6-((1R)-1-hydroxyethyl)-1-methyl-2-[7-((2S)-pyrrolidin-2-yl)carbonylimidazo[5,1-b]thiazol-2-yl]-1-carbapen-2-em-3-carboxylate]
ED50 [4, 6]: 0.25 mg/mouse

SMILES: C[C@@H](O)[C@H]1C(=O)N2C(C(=O)[O-])=C(c3cn4cnc(C(=O)c5cc(SCCN)c[n+](CC(=O)O)c5)c4s3)[C@H](C)[C@H]12 [Example 37, (1S,5R,6S)-2-[7-[5-(2-Aminoethyl)thio-1-carboxylmethylpyridinium-3-yl]carbonylimidazo[5,1-b]-thiazol-2-yl]-6-((1R)-1-hydroxyethyl)-1-methyl-1-carbapen-2-em-3-carboxylate]
ED50 ([4]; Amount of inoculant: 2.5 × 10^6 CFU/mouse): 0.139 mg/mouse

SMILES: C[C@@H](O)[C@H]1C(=O)N2C(C(=O)[O-])=C(c3cn4cnc(C(=O)c5ccc[n+](CCNS(N)(=O)=O)c5)c4s3)[C@H](C)[C@H]12 [Example 65, (1S,5R,6S)-6-((1R)-1-Hydroxyethyl)-1-methyl-2-[7-[1-(2-sulfamoylaminoethyl)pyridinium-3-yl]carbonylimidazo[5,1-b]thiazol-2-yl]-1-carbapen-2-em-3-carboxylate]
ED50 [4, 7]: 0.32 mg/mouse

SMILES: CN[C@H](CC(C)C)C(=O)N[C@H]1C(=O)N[C@@H](CC(N)=O)C(=O)N[C@H]2C(=O)N[C@H]3C(=O)N[C@H](C(=O)N[C@H](C(=O)O)c4cc(O)cc(O)c4-c4cc3ccc4O)[C@H](O)c3ccc(c(Cl)c3)Oc3cc2cc(c3O[C@@H]2O[C@H](CO)[C@@H](O)[C@H](O)[C@H]2O[C@H]2C[C@](C)(N)[C@H](O)[C@H](C)O2)Oc2ccc(cc2Cl)[C@H]1O [Vancomycin, reference compound]
ED50 [4, 6]: 0.50 mg/mouse | ED50 [4, 7]: 0.71 mg/mouse

Second part, led by results:

MIC (B. catarrhalis W-0500): 0.031 µg/mL | MIC (E. coli NIHJ JC-2): 0.125 µg/mL | MIC (H. influenzae PRC44): 0.031 µg/mL | MIC (K. pneumoniae PCI602): 0.25 µg/mL | MIC (S. aureus 209P JC-1): 0.016 µg/mL | MIC [1]: 1 µg/mL | MIC [2]: 8 µg/mL | MIC [3]: 0.063 µg/mL
SMILES: CC(=O)c1ncn2cc(C3=C(C(=O)[O-])N4C(=O)[C@H]([C@@H](C)O)[C@H]4[C@H]3C)sc12.[Na+] [Compound A, Sodium (1S,5R,6S)-2-(7-acetylimidazo[5,1-b]thiazol-2-yl)-6-((1R)-1-hydroxyethyl)-1-methyl-1-carbapen-2-em-3-carboxylate, reference compound]

MIC (B. catarrhalis W-0500): < 0.025 µg/mL | MIC (E. coli NIHJ JC-2): 3.13 µg/mL | MIC (H. influenzae PRC44): 0.1 µg/mL | MIC (K. pneumoniae PCI602): 3.13 µg/mL | MIC (S. aureus 209P JC-1): < 0.006 µg/mL | MIC [1]: 1.56 µg/mL | MIC [2]: 6.25 µg/mL | MIC [3]: 0.1 µg/mL
SMILES: C[C@@H](O)[C@H]1C(=O)N2C(C(=O)[O-])=C(c3cn4cnc(C(=O)c5ccccc5)c4s3)[C@H](C)[C@H]12.[Na+] [Compound B, Sodium (1S,5R,6S)-2-(7-benzoylimidazo[5,1-b]thiazol-2-yl)-6-((1R)-1-hydroxyethyl)-1-methyl-1-carbapen-2-em-3-carboxylate, reference compound]

MIC (B. catarrhalis W-0500): 0.063 µg/mL (≈ 0.21 µM) | MIC (E. coli NIHJ JC-2): 0.125 µg/mL (≈ 0.418 µM) | MIC (H. influenzae PRC44): 8 µg/mL (≈ 26.7 µM) | MIC (K. pneumoniae PCI602): 0.25 µg/mL (≈ 0.835 µM) | MIC (S. aureus 209P JC-1): 0.008 µg/mL (≈ 0.0267 µM) | MIC [1]: 4 µg/mL (≈ 13.4 µM) | MIC [2]: 64 µg/mL (≈ 214 µM) | MIC [3]: 0.25 µg/mL (≈ 0.835 µM)
SMILES: C[C@@H](O)[C@H]1C(=O)N2C(C(=O)O)=C(SCCN=CN)C[C@H]12 [Compound C, Imipenem, reference compound]

MIC (B. catarrhalis W-0500): 0.031 µg/mL (≈ 0.0644 µM) | MIC (E. coli NIHJ JC-2): 0.031 µg/mL (≈ 0.0644 µM) | MIC (H. influenzae PRC44): 0.063 µg/mL (≈ 0.131 µM) | MIC (K. pneumoniae PCI602): 0.031 µg/mL (≈ 0.0644 µM) | MIC (S. aureus 209P JC-1): 0.008 µg/mL (≈ 0.0166 µM) | MIC [1]: 0.25 µg/mL (≈ 0.519 µM) | MIC [2]: 1 µg/mL (≈ 2.08 µM) | MIC [3]: 0.031 µg/mL (≈ 0.0644 µM)
SMILES: C[C@@H](O)[C@H]1C(=O)N2C(C(=O)[O-])=C(c3cn4cnc(C(=O)c5ccc[n+](CC(N)=O)c5)c4s3)C[C@H]12 [Example 39, (5R,6S)-2-[7-(1-Carbamoylmethylpyridinium-3-yl)carbonylimidazo[5,1-b]thiazol-2-yl]-6-((1R)-1-hydroxyethyl)-1-carbapen-2-em-3-carboxylate]
ED50 ([4]; Amount of inoculant: 2.9 × 10^6 CFU/mouse): 0.02 mg/mouse
